# Results: patent US9616009B2, “Composition containing at least one C7 sugar for alopecia treatment, cosmetic treatment of hair and nails, and care of hair, eyelashes or nails” (LABORATOIRES EXPANSCIENCE, priority 2009, dated 2017)
# How the values were obtained:
# IL-8 [1] = assay: IL-8 release (ELISA) by keratinocytes stressed with PMA; format: cell-based, human
# Protocol: (§1) We evaluated the capacity to modulate the inflammatory response of the avocado sugars obtained according to Example 1, hereafter called AV119, in human primary keratinocytes stressed with PMA (phorbol myristic acetate).
# (§2) At day 0 (D0), normal human epidermal keratinocytes (NHEK) are seeded in hydrocortisone-free KGM2 medium.
# (§3) At subconfluence (at D1), the NHEK are rinsed with PBS and then pretreated with 0.005% and 0.05% avocado sugars AV119 or 0.1 μM dexamethasone (positive control) (Sigma, product D4902) in hydrocortisone-free KGM2 medium.
# (§4) Twenty-four hours later, the NHEK are treated overnight with 10 μg/ml PMA (phorbol myristate acetate).
# (§5) After incubation, the culture supernatants are collected and stored at −80° C. awaiting the cytokine (IL-1β, TNF-α, IL-8) ELISA (R&D Systems kits).
# (§6) In parallel, the number of living cells is determined by a neutral red test.
# (§7) The quantity of cytokine assayed for each condition (concentration in pg/ml, or OD450) is reduced to the number of living cells by dividing by the OD540 value obtained at the end of the neutral red test.
# (§8) The results are compared statistically using a one way ANOVA followed by a Tukey's test.
# IL-1β = IL-1β release (ELISA) by keratinocytes stressed with PMA; format: cell-based, human
# Protocol: as §1, §2, §3, §4, §5, §6, §7, §8
# TNF-α [2] = assay: TNF-α release (ELISA) by keratinocytes stressed with PMA; format: cell-based, human
# Protocol: as §1, §2, §3, §4, §5, §6, §7, §8
# [3] = tested on: tumor cells of Ehrlich's ascites carcinoma; settings: perseitol associated with a potassium ion; Shibuya et al., Pure Appl. Chem. 1999; cited from earlier work
# ICAM-1 [4] = assay: ICAM-1 protein production (ELISA) in keratinocytes stressed with LPS; format: cell-based, human; settings: keratinocytes stressed with 10 μg/ml LPS 24 h: LPS alone, or with 1% AV119, or with 30 μM calpain
# Protocol: (§9) We evaluated the capacity to modulate the inflammatory response of the avocado sugars obtained according to Example 1, hereafter called AV119, in human primary keratinocytes stressed with LPS (lipopolysaccharide).
# (§10) […] In another series of experiments, the keratinocytes were pretreated with 30 μM calpain and successively with 10 μg/ml LPS for 24 h. Calpain is a specific inhibitor of the transcription factor NFκB, a key element of the inflammatory cascade. A control of keratinocytes treated only with AV119 was prepared.
# (§11) Expression of mRNA for the cytokines IL-6, IL-8, IL-1α and TNF-α was analyzed by real-time PCR and protein production and release were analyzed by ELISA in the culture supernatants. Moreover, ICAM-1 expression and production were also analyzed. Finally, IκB phosphorylation was analyzed to measure the activation of transcription factor NFκB.
# (§12) A standard protocol was used for the ELISA tests (Phoenix Pharmaceuticals, Inc.).
# IL-1α [5] = assay: IL-1α gene expression (mRNA, real-time PCR) in keratinocytes stressed with LPS; format: cell-based, human; settings: keratinocytes stressed with 10 μg/ml LPS 24 h: LPS alone, or pretreated with 0.1% AV119 24 h, or with 30 μM calpain
# Protocol: as §9
# (§13) The cells were pretreated with 0.1% AV119 for 24 h and successively with 10 μg/ml of LPS for 24 h. In another series of experiments, the keratinocytes were pretreated with 30 μM calpain and successively with 10 μg/ml LPS for 24 h. Calpain is a specific inhibitor of the transcription factor NFκB, a key element of the inflammatory cascade. A control of keratinocytes treated only with AV119 was prepared.
# as §11
# (§14) Total RNA was extracted with the High Pure RNA Isolation Kit (Roche Diagnostics) according to the manufacturer's recommendations. […] The melting curve was analyzed at the end of each amplification to ensure the absence of non-specific reaction products. […]
# IL-6 [6] = assay: IL-6 protein production (ELISA) in keratinocytes stressed with LPS; format: cell-based, human; settings: keratinocytes stressed with 10 μg/ml LPS 24 h: LPS alone, or pretreated with 0.1% AV119 24 h, or with 30 μM calpain; culture supernatant
# Protocol: as §9, §13, §11, §12
# IL-6 [7] = assay: IL-6 gene expression (mRNA, real-time PCR) in keratinocytes stressed with LPS; format: cell-based, human; settings: keratinocytes stressed with 10 μg/ml LPS 24 h: LPS alone, or pretreated with 0.1% AV119 24 h, or with 30 μM calpain
# Protocol: as §9, §13, §11, §14
# [8] = tested on: IκB phosphorylation / transcription factor NFκB; assay: IκB phosphorylation (Western blot) as measure of NFκB activation in keratinocytes stressed with LPS; format: cell-based, human; settings: keratinocytes stressed with 10 μg/ml LPS; pretreated with 0.1% AV119 or 30 μM calpain
# Protocol: as §9, §13, §11
# Proteins were extracted from the keratinocytes by cold homogenization in lysis buffer (50 mM HEPES pH 7.5, 150 mM NaCl, 1% glycerol, 1% Triton, 1.5 mM MgCl2, 5 mM EGTA) supplemented with 20 mM sodium pyrophosphate, 10 mM sodium orthovanadate and 25 mM NaF and protease inhibitors (aprotinin, phenylmethanesulfonyl fluoride (PMSF)). Protein level was quantified by the Bradford method. […]
# IL-8 [9] = assay: IL-8 gene expression (mRNA, real-time PCR) in keratinocytes stressed with LPS; format: cell-based, human; settings: keratinocytes stressed with 10 μg/ml LPS 24 h: LPS alone, or pretreated with 0.1% AV119 24 h, or with 30 μM calpain
# Protocol: as §9, §13, §11, §14
# TNF-α [10] = assay: TNF-α protein production (ELISA) in keratinocytes stressed with LPS; format: cell-based, human; settings: keratinocytes stressed with 10 μg/ml LPS 24 h: LPS alone, or pretreated with 0.1% AV119 24 h, or with 30 μM calpain; culture supernatant
# Protocol: as §9, §13, §11, §12
# IL-1α [11] = assay: IL-1α protein production (ELISA) in keratinocytes stressed with LPS; format: cell-based, human; settings: keratinocytes stressed with 10 μg/ml LPS 24 h: LPS alone, or pretreated with 0.1% AV119 24 h, or with 30 μM calpain; culture supernatant
# Protocol: as §9, §13, §11, §12
# ICAM-1 [12] = assay: ICAM-1 gene expression (mRNA, real-time PCR) in keratinocytes stressed with LPS; format: cell-based, human; settings: keratinocytes stressed with 10 μg/ml LPS 24 h: LPS alone, or with 30 μM calpain
# Protocol: as §9, §10, §11
# Total RNA was extracted with the High Pure RNA Isolation Kit (Roche Diagnostics) according to the manufacturer's recommendations. […] The melting curve was analyzed at the end of each amplification to ensure the absence of non-specific reaction products. Quantification rests on the measure of threshold cycles (CT), which are measured at the beginning of the exponential phase of the reaction and on the normalization of the internal standard curve obtained with the reference gene beta-actin.
# TNF-α [13] = assay: TNF-α gene expression (mRNA, real-time PCR) in keratinocytes stressed with LPS; format: cell-based, human; settings: keratinocytes stressed with 10 μg/ml LPS 24 h: LPS alone, or pretreated with 0.1% AV119 24 h, or with 30 μM calpain
# Protocol: as §9, §13, §11, §14
# IL-8 [14] = assay: IL-8 protein production (ELISA) in keratinocytes stressed with LPS; format: cell-based, human; settings: keratinocytes stressed with 10 μg/ml LPS 24 h: LPS alone, or pretreated with 0.1% AV119 24 h, or with 30 μM calpain; culture supernatant
# Protocol: as §9, §13, §11, §12
# [15] = 0.1 μM dexamethasone, in relation to PMA
# [16] = NHEK pretreated 24 h with 0.1 μM dexamethasone, then 10 μg/ml PMA overnight
# [17] = NHEK, 10 μg/ml PMA overnight, PMA alone
# [18] = PMA 10 μg/ml alone, increase in relation to the untreated control (without PMA)
molecule,measurement,setting,value
"C[C@@H]1C[C@H]2[C@@H]3CCC4=CC(=O)C=C[C@]4(C)[C@@]3(F)[C@@H](O)C[C@]2(C)[C@@]1(O)C(=O)CO [Dexamethasone, dexamethasone]","IL-8 release, % in relation to the control",IL-8 [1]; [15],−55%
same,IL-8 pg/ml/OD450 (mean ± SD),IL-8 [1]; [16],0.790 ± 0.089 pg/ml/OD450
same,"IL-1β release, % in relation to the control",IL-1β; [15],−70%
same,IL-1β pg/ml/OD450 (mean ± SD),IL-1β; [16],3.232 ± 0.329 pg/ml/OD450
same,"TNF-α release, % in relation to the control",TNF-α [2]; [15],−44%
same,TNF-α pg/ml/OD450 (mean ± SD),TNF-α [2]; [16],0.328 ± 0.007 pg/ml/OD450
"OCC(O)C(O)C(O)C(O)C(O)CO (stereo not drawn) [perseitol, Perseitol]",incorporation of 3H-leucine in tumor cells,[3],inhibits the incorporation of 3H-leucine
lipopolysaccharide [LPS],ICAM-1 protein production (ELISA),ICAM-1 [4],85
same,"IL-1α gene expression (mRNA, real-time PCR)",IL-1α [5],71.5
same,IL-6 protein production (ELISA),IL-6 [6],76
same,"IL-6 gene expression (mRNA, real-time PCR)",IL-6 [7],54.5
same,"IκB phosphorylation (activation of transcription factor NFκB), Western blot",[8],strongly induced IκB phosphorylation
same,"IL-8 gene expression (mRNA, real-time PCR)",IL-8 [9],54.1
same,TNF-α protein production (ELISA),TNF-α [10],96.0
same,IL-1α protein production (ELISA),IL-1α [11],82
same,"ICAM-1 gene expression (mRNA, real-time PCR)",ICAM-1 [12],53.2
same,"TNF-α gene expression (mRNA, real-time PCR)",TNF-α [13],68.0
same,IL-8 protein production (ELISA),IL-8 [14],85
"CCCCCCCCCCCCCC(=O)O[C@@H]1[C@@H](C)[C@@]2(O)[C@@H](C=C(CO)C[C@]3(O)C(=O)C(C)=C[C@@H]23)[C@@H]2C(C)(C)[C@]12OC(C)=O [PMA, phorbol myristate acetate]",IL-8 pg/ml/OD450 (mean ± SD),IL-8 [1]; [17],1.765 ± 0.305 pg/ml/OD450
same,"IL-8 release, % in relation to the control",IL-8 [1]; [18],1017%
same,IL-1β pg/ml/OD450 (mean ± SD),IL-1β; [17],10.930 ± 0.190 pg/ml/OD450
same,"IL-1β release, % in relation to the control",IL-1β; [18],1399%
same,TNF-α pg/ml/OD450 (mean ± SD),TNF-α [2]; [17],0.584 ± 0.079 pg/ml/OD450
same,"TNF-α release, % in relation to the control",TNF-α [2]; [18],1091%
